Results on 4 compounds are retold here after patent US8182793B2, “Sunless tanning products and processes” (Concept Laboratories, priority 2004, dated 2012).

Where two headings read alike, the source gives them in different places.

The test system of data set [1] is skin. Nature of the data set: Tanning response on forearm skin, visual assessment of color development on a 1-6 point scale. Type of data set: in vivo, human. How it is done:
Simple aqueous formulations of dihydroxyacetone and sodium lactate were first evaluated for tanning response on skin. The formulations evaluated and the tanning responses obtained are shown in Tables 3 (formulations) and Table 4 (tanning response of Table 3 formulas).
(§1) An equal amount of each formula (approximately 150 mg.) from Table 3 was applied to 2″×2″ adjacent sections of forearm, allowed to dry and covered with clothing for the duration of the testing. The application areas were visibly the same color prior to treatment with the solutions and this was confirmed via calorimeter readings. Visual assessment of color development was made 24 hours post application using a 1-6 point scale with 1 signifying no color development versus non-treated skin, 3 signifying moderate color development and 6 signifying intensely dark color development. A commercial sunless tanning solution containing 10% DHA was used as a positive control.
as §1, with “As before, an equal” for “An equal”, “Table 5” for “Table 3”, “via colorimeter” for “via calorimeter”, “24 hours and at 48” for “24”, “development.” for “development. A commercial sunless tanning solution containing 10% DHA was used as a positive control.”
A control formula containing 10% DHA, 5% butylene glycol and 5% methylsulfonylmethane was used as a positive control. Past studies as outlined in applicants' co-pending application Ser. No. 10/382,868 titled SUNLESS TANNING PRODUCTS AND PROCESSES, filed on Mar.

The subject of a further data set is stratum corneum. Nature of the data set: In vivo water binding capacity, Nova Dermal Phase Meter (conductance). The settings on record: added to aqueous solutions of DHA. How it is done:
In addition to the water activity screening and the tanning experiments conducted with simple aqueous solutions of DHA, sodium lactate, and glycols, objective instrumental testing for in vivo water binding capacity of these DHA-sodium lactate-glycol solutions was conducted.
The Nova Meter measures water content of the top layers of the skin indirectly via conductance measurements.

Data set [2] in a line: Water activity (aw) measured with Aqualab 3TE instrument. To be noted: for Reduction of water activity compared with other screened materials (in words): additive screening, aqueous solutions. Type of data set: physicochemical. The source says:
There is no device that can be put into a product to directly measure the water activity. However, the water activity of a product can be determined, indirectly, from the relative humidity of the air surrounding the sample when the air and the sample are at equilibrium. Therefore, the sample must be in an enclosed space where this equilibrium can take place. Once this occurs, the water activity of the sample and the relative humidity of the air are equal. The measurement taken at equilibrium is called an equilibrium relative humidity or ERH.
In practice, water activity can be determined by use of the Aqualab© (Decagon, Inc., Pullman, Wash.) or HygroLab© (Rotronic, Inc., Huntington, N.Y.). For all of the experimental water activity data recorded and detailed in this application, an Aqualab 3T-E instrument with an accuracy of +/−0.003 units and with automatic temperature equilibration (23.7+/−0.2° C.) capability was utilized.
In the AquaLab instrument, a sample is equilibrated within the headspace of a sealed chamber containing a mirror, an optical sensor, an internal fan, and an infrared temperature sensor. At equilibrium, the relative humidity of the air in the chamber is the same as the water activity of the sample. A thermoelectric (Peltier) cooler precisely controls the mirror temperature. An optical reflectance sensor detects the exact point at which condensation first appears. A beam of infrared light is directed onto the mirror and reflected back to a photodetector which detects the change in reflectance when condensation occurs on the mirror. A thermocouple attached to the mirror accurately measures the dew-point temperature. The internal fan is for air circulation, which reduces vapor equilibrium time and controls the boundary layer conductance of the mirror surface. Additionally, a thermopile sensor (infrared thermometer) measures the sample surface temperature. Both the dew point and sample temperatures are then used to determine the water activity. During a water activity measurement, the AquaLab repeatedly determines the dew-point temperature until vapor equilibrium is reached. Since the measurement is based on temperature determination, calibration is not necessary, but measuring a standard salt solution checks proper functioning of the instrument. If there is a problem, the mirror is easily accessible and can be cleaned in a few minutes.
Sunless tanning formulations typically contain 3-10% by weight of DHA as the primary tanning agent dissolved in water. DHA is a water soluble sugar, and, as with other sugars or solutes will decrease the water activity as compared to pure water (aw=1.00). Solutes dilute the water, increasing its entropy and therefore lowering its energy state. These two effects combine to lower the total free energy of the water.
An arbitrary upper limit of 0.900 for aqueous solutions of additives was set for the screening studies. In other words, any cosmetic or pharmaceutical additive investigated must lower the aw of water from 1.000 to 0.900 or below when tested at a concentration that was judged to be the upper practical limit for inclusion based on safety and general cosmetic acceptability.

The conditions of data set [3]: moisture loss figure, Purac citation (Osipow); cited from earlier work.
In data set [4] the test system is skin. The settings on record: earlier studies of the applicant in prior filings Ser. No. 10/382,868 & 10/694,972; cited from earlier work.

With `CC(O)C(=O)[O-].[Na+]` (stereo not drawn) [Sodium Lactate, sodium lactate], the “Effect on the tanning response of DHA” value with skin [1] (added to 5% DHA solutions) is recorded as “enhancement of the tanning response was recorded”; in the data set on skin [1] (use concentrations of 0.5-5.0%) it was “Enhance the tanning response of DHA”. Besides, in the data set with stratum corneum, the “Water holding capacity of the stratum corneum (moisturizing effect)” value is given as “improve the water holding capacity of the stratum corneum”. The “Water Activity (aw)” value is recorded as 0.991 in data set [2] (Sodium Lactate 6.0 % w/w); 0.944 in data set [2] (Sodium Lactate 12.0 % w/w); 0.913 in data set [2] (Sodium Lactate 18.0 % w/w); 0.880 in data set [2] (Sodium Lactate 24.0 % w/w); 0.840 in data set [2] (Sodium Lactate 30.0 % w/w). In addition, in data set [2], the “Reduction of water activity compared with other screened materials (in words)” value was “capable of reducing the water activity to a greater extent than any other material screened”. For the same compound, in data set [2] (aqueous solutions at concentrations of 25% w/w or less), the “Water activity (Aw)” value was “below 0.900”. Further, the “Concentration meeting the screening criterion of reduction of aw to 0.900 or less” value in data set [2] (read from Table 2) is reported as 18-24%. Moreover, in data set [3], the Water-holding capacity result was “double the capacity of glycerin”.
Take `O=C1CCC(C(=O)[O-])N1.[Na+]` (stereo not drawn) [Sodium PCA, sodium pyrrolidone carboxylic acid]: the “Reduction of water activity compared with other screened materials (in words)” value in data set [2] is “capable of reducing the water activity to a greater extent than any other material screened”.
Take `OCC(O)CO` [glycerol, reference compound]: the “Lowering of water activity compared with other glycols (in words)” value in data set [2] (10% in 10% DHA solution, Table 1) was “lower the water activity to a greater extent than the other glycols evaluated”. The “Effect on the tanning response of DHA” value in the data set with skin [4] is given as “somewhat of an inhibitory effect on the tanning response of DHA”. Moreover, the Water-holding capacity entry in data set [3] is recorded as “equal water-holding capacity”.
`CC(O)C(=O)O` (stereo not drawn) [lactic acid]: the “Effect on the tanning response of DHA” value in the data set with skin [1] (added to 5% DHA solutions) was “enhancement of the tanning response was recorded”. Further, the Water-holding capacity entry in data set [3] is “equal water-holding capacity”.
